Molecules are shown by their SMILES.

The target in one test is human CB2R (Homo sapiens, UniProt P34972). Description: [35S]GTPγS binding assay, CHO-hCB2 membranes. Format: biochemical. In general terms: GTPγS is a poorly hydrolysed GTP analogue; its binding reports G protein activation.
A further test deals with human CB1R (Homo sapiens, UniProt P21554). Nature of the test: [35S]GTPγS binding assay, CHO-hCB1 membranes. Format: biochemical.
The subject of the next test is BALB/c mice. Description: Tetrad test. Type of test: in vivo, mouse. The note with it: pretreatment at 5 mg/kg.

Chain of human CB2R (P34972 whole entry): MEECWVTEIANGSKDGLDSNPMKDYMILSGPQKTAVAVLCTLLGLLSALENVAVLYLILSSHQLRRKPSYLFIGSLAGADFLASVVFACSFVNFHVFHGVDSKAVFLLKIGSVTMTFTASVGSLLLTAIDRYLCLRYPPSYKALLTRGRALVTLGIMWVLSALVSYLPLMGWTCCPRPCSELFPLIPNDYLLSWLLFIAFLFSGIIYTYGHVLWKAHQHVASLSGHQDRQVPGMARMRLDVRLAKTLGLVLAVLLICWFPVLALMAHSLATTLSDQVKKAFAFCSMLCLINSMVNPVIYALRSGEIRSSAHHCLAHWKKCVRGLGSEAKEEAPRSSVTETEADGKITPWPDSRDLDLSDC
Chain of human CB1R (P21554 whole entry): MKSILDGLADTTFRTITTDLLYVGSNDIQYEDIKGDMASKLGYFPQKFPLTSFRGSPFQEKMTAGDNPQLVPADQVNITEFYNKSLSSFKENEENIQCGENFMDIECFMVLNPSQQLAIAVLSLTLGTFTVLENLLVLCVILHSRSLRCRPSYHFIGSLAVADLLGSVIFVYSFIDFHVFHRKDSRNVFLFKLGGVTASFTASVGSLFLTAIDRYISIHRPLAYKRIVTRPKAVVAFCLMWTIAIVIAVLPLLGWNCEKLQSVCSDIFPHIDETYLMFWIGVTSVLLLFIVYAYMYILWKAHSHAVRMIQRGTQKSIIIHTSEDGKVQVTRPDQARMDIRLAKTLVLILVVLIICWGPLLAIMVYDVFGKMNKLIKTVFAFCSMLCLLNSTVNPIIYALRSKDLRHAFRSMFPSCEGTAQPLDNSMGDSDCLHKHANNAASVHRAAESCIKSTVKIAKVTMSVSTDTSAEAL

For the compound `CCCCCCC(C)(C)c1ccc([C@@H]2C[C@H](O)CC[C@H]2CCCO)c(O)c1` [CP55,940], at human CB2R ([35S]GTPγS binding), the “CB2R agonist type (full or partial agonist)” value is listed as “full”. Further, the maximum response (Emax) (in general, the size of the effect at its maximum, as opposed to the concentration needed) stood at 194 ± 5% at human CB2R (read-out: Receptor activation CB2R (Emax)) and 173 ± 6% on human CB1R (read-out: Receptor activation CB1R (Emax)). The “CB1R agonist type (full or partial agonist)” value on human CB1R ([35S]GTPγS binding) was “full”.

As for `Cc1c(C(=O)NN2CCCCC2)nn(-c2ccc(Cl)cc2Cl)c1-c1ccc(Cl)cc1` [rimonabant, Rimonabant], the “Blockade of the tetrad effects of PET and THC diastereoisomers” value with BALB/c mice is given as “fully abolished”.

The values above are taken from paper PMC6200358 (Science Advances, 2018).
